Data: US4767865A, “3'-pyridinylalkylinden- and 3'-pyridinylalkylindol-2-carboxylic acids and analogs” (The Upjohn Company, priority 1987, dated 1988)
Where a name gives a salt, the structure may show the parent alone. Read-outs that look alike come from different tables or passages of the source.

Tests used:
thromboxane synthetase = experiment: Inhibition of Thromboxane A2 biosynthesis in platelet rich plasma; assay type: cell-based; conditions: at 1 μg/ml
Protocol: In this system, 6-(3-pyridylmethyl)indene-2-carboxylic acid inhibited thromboxane synthetase 95% as compared to control at 1 μg/ml.

TXA2 synthetase = molecular target: T1, TXA2 synthetase (Homo sapiens, UniProt P24557); experiment: TXA2 synthetase inhibition: TXA2 produced by mixing PGH2 and HPM, measured by response of the rabbit aorta; assay type: biochemical; conditions: test compound added to HPM 5 minutes before mixing with PGH2, approximate
T1 construct: from tissue; host or cells: HPM (read as human platelet microsomes)
T1 sequence (P24557 1-533): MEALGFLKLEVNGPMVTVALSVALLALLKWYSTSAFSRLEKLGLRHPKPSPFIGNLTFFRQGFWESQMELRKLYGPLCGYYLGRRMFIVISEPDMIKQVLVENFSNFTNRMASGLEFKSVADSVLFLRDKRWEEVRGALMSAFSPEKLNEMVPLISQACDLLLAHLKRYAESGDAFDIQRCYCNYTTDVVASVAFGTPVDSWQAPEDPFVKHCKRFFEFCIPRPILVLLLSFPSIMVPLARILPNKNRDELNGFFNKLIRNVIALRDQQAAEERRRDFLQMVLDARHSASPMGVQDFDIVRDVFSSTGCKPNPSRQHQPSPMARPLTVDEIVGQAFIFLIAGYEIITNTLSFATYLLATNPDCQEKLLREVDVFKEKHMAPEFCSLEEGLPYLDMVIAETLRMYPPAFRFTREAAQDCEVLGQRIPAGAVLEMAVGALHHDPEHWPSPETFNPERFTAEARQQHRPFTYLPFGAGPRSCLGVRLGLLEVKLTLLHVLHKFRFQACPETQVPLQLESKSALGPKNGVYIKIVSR
Protocol: Potential inhibitors were tested by comparing the response of the rabbit aorta to the amount of TXA2 produced by mixing PGH2 and HPM without the test compound in the reaction medium and then the amount of TXA2 produced when the test compound was added to the HPM 5 minutes before the HPM was mixed with PGH2. […] For a discussion of TXA2 synthetase inhibition testing see, e.g., R. Gorman, supra.

IC50 (TXA2 synthetase; read-out: approximate ED50 (lower bound)) | IC50 (TXA2 synthetase; read-out: approximate ED50 (upper bound)) | SMILES | inhibited thromboxane synthetase as compared to control (thromboxane synthetase)
 |  | O=C(O)C1=Cc2ccc(Cc3cccnc3)cc2C1 [6-(3-Pyridylmethyl)indene-2-carboxylic Acid] | 95%
> 346 nM | < 3460 nM | O=C(O)c1cc2cc(NCc3cccnc3)ccc2[nH]1 [Sodium Salt] | 
